Assays:
[1] = target: Flt-3 kinase (Homo sapiens (Human), UniProt P36888); assay: Flt-3 kinase biochemical activity assay (AlphaScreen, biotin-(E4Y)10 phosphorylation); conditions: 100 μM ATP
Procedure: In one assay the biochemical activity IC50 values are determined with respect to inhibition of Flt-3 kinase activity, where inhibition of phosphorylation of a peptide substrate is measured as a function of compound concentration. Compounds to be tested, dissolved in DMSO (1 μL), are added to a white 384-well plate (Costar #3705). Working stocks of Flt-3 kinase (Invitrogen), biotin-(E4Y)10 substrate (Upstate Biotech, Cat#12-440), and ATP (Sigma, Cat#A-3377) are prepared in 25 mM Hepes pH 7.5, 5 mM MgCl2, 5 mM MnCl2, 1 mM DTT, and 0.01% Tween-20. All components are added to the 384-well plate for a final concentration of 1 ng/well Flt-3, 30 nM biotin-(E4Y)10 and 100 μM ATP in a volume of 20 μL. Each sample is at 5% DMSO. The plate is then incubated for 1 hour at room temperature. Just before use, working stocks of donor and acceptor beads from the AlphaScreen PY20 Detection Kit (PerkinElmer, Cat#676601M) are prepared in 25 mM Hepes pH 7.5, pH 7.4, 100 mM EDTA. 0.3% BSA. To stop the reaction, the plate is uncovered in the dark and 5 μL of Donor Beads solution (Streptavidin beads) is added to each well. The plate is incubated at room temperature for 20 minutes. Five microliters of Acceptor Beads solution (PY20 coated beads) are then added to each well. The final concentration of each bead is 10 μg/mL. The plates are incubated at room temperature for 60 minutes. Fluorescence signal is recorded on the Envision reader. Phosphorylated substrate results in binding of the PY20 antibody and association of the donor and acceptor beads such that signal correlates with kinase activity. The signal vs. compound concentration is used to determine the IC50.

[2] = Turbidity assay of relative solubility in aqueous buffers; format: physicochemical; conditions: for turbidity threshold (L, M, H) 1.4: pH 1.4 as headed (method: SGF pH 1.5); for turbidity threshold (L, M, H) 4.5: pH 4.5 (SIF); for turbidity threshold (L, M, H) 6.8: pH 6.8 (SIF); for turbidity threshold (L, M, H) 7.4: pH 7.4 (HEPES)
In short: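 Turbidity was read spectrophotometrically at 490, 535 and 650 nm, and the endpoint is the concentration where OD passes 0.01, as the mean of the three wavelengths. Compounds came from 25 mM DMSO stock in 1:1 serial dilutions, added to HEPES pH 7.4, SIF pH 6.8 or 4.5 (0.05M NaH2PO4), or SGF pH 1.5 (0.5M NaCl).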

Flt-3 kinase, sequence (P36888 27-993): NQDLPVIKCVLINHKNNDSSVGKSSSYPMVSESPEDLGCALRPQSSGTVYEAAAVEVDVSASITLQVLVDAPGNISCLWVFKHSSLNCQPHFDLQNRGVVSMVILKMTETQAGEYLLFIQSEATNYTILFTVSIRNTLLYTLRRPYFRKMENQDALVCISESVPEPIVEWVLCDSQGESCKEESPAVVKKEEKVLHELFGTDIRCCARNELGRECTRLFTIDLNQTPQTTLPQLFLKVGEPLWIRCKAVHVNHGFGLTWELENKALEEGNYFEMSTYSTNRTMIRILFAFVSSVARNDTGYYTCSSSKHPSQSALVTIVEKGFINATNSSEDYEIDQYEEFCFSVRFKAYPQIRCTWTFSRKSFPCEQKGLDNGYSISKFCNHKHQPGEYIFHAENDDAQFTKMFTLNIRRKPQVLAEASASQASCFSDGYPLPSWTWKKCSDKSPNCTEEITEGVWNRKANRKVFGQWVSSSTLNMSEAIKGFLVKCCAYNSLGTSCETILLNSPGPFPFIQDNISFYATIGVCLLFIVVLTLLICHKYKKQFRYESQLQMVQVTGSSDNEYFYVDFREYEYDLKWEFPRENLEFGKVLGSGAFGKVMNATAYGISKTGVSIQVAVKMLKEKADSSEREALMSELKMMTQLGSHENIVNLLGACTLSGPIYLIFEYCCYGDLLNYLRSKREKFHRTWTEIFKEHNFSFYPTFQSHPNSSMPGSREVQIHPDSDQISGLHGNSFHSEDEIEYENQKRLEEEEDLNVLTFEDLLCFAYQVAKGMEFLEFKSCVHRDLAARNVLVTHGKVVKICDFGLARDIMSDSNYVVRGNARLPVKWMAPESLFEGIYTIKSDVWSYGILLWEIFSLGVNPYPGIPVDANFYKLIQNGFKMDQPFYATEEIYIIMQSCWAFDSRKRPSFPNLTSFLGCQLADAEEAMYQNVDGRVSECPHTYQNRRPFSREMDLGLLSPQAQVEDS

SMILES	IC50 [1] [µM]	turbidity threshold (L, M, H) 1.4 [2]	turbidity threshold (L, M, H) 4.5 [2]	turbidity threshold (L, M, H) 6.8 [2]	turbidity threshold (L, M, H) 7.4 [2]
COc1cnc2[nH]cc(Cc3ccc(NCc4ccc(Cl)cc4)nc3F)c2c1 [Compound P-2032, (4-Chloro-benzyl)-[6-fluoro-5-(5-methoxy-1H-pyrrolo[2,3-b]pyridin-3-ylmethyl)-pyridin-2-yl]-amine]	< 0.1	M (moderate solubility if the threshold concentration is 31.3 μM to 250 μM)	L (low solubility if the threshold concentration is <31.3 μM)	L (low solubility if the threshold concentration is <31.3 μM)	L (low solubility if the threshold concentration is <31.3 μM)
COc1ccc(CNc2ccc(Cc3c[nH]c4ncc(C)cc34)c(F)n2)cn1 [Compound P-2029, [6-Fluoro-5-(5-methyl-1H-pyrrolo[2,3-b]pyridin-3-ylmethyl)-pyridin-2-yl]-(6-methoxy-pyridin-3-ylmethyl)-amine]	< 0.1	H (high solubility if the threshold concentration is >250 μM)	M (moderate solubility if the threshold concentration is 31.3 μM to 250 μM)	M (moderate solubility if the threshold concentration is 31.3 μM to 250 μM)	M (moderate solubility if the threshold concentration is 31.3 μM to 250 μM)
COc1ncc(CNc2ccc(Cc3c[nH]c4ncc(Cl)cc34)c(F)n2)cc1F [Compound P-2165, [5-(5-Chloro-1H-pyrrolo[2,3-b]pyridin-3-ylmethyl)-6-fluoro-pyridin-2-yl]-(5-fluoro-6-methoxy-pyridin-3-ylmethyl)-amine]	< 0.1	L (low solubility if the threshold concentration is <31.3 μM)	L (low solubility if the threshold concentration is <31.3 μM)	L (low solubility if the threshold concentration is <31.3 μM)	L (low solubility if the threshold concentration is <31.3 μM)
COc1ccc(CNc2ncc(Cc3c[nH]c4ncc(Cl)cc34)cn2)cn1 [Compound P-2038, [5-(5-Chloro-1H-pyrrolo[2,3-b]pyridin-3-ylmethyl)-pyrimidin-2-yl]-(6-methoxy-pyridin-3-ylmethyl)-amine]	< 0.1	H (high solubility if the threshold concentration is >250 μM)	L (low solubility if the threshold concentration is <31.3 μM)	L (low solubility if the threshold concentration is <31.3 μM)	L (low solubility if the threshold concentration is <31.3 μM)
Cc1cnc2[nH]cc(Cc3ccc(NCc4ccc(C(F)(F)F)nc4)nc3F)c2c1 [Compound P-2031, [6-Fluoro-5-(5-methyl-1H-pyrrolo[2,3-b]pyridin-3-ylmethyl)-pyridin-2-yl]-(6-trifluoromethyl-pyridin-3-ylmethyl)-amine]	< 0.1	M (moderate solubility if the threshold concentration is 31.3 μM to 250 μM)	L (low solubility if the threshold concentration is <31.3 μM)	L (low solubility if the threshold concentration is <31.3 μM)	L (low solubility if the threshold concentration is <31.3 μM)

Source: patent publication US9096593B2, “Compounds and methods for kinase modulation, and indications therefor” (Plexxikon Inc., priority 2009, dated 2015)
